Experiments:
[1] = (§1) The drug is tested on Z-002 corresponding to rabbit gut metagenome with ENA study accession number: PRJEB37062 and ENA sample accession number: ERS12561802 for biotransformation under anaerobic condition. The drug concentrations were measured over 9 timepoints collected between 0 and 24 hours of incubation by liquid-chromatography-coupled mass spectrometry (LC–MS); conditions: 2 µM
[2] = human gut metagenome, 24 h, 2 µM
[3] = as §1, with “WLS-006” for “Z-002”, “human” for “rabbit”, “ERS12561741” for “ERS12561802”; conditions: 2 µM
[4] = human gut metagenome, 24 h, 2 µM; remark: listed apart in the source
[5] = human gut metagenome, 24 h, 2 µM; remark: listed apart in the source
[6] = human gut metagenome, 24 h, 2 µM; remark: listed apart in the source
[7] = human gut metagenome, 24 h, 2 µM; remark: listed apart in the source
[8] = as §1, with “Z-009” for “Z-002”, “pig” for “rabbit”, “ERS12561809” for “ERS12561802”; conditions: 2 µM
[9] = as §1, with “Z-005” for “Z-002”, “to” for “to rabbit gut”, “ERS12561805” for “ERS12561802”; conditions: 2 µM
[10] = as §1, with “WLS-027” for “Z-002”, “human” for “rabbit”, “ERS12561744” for “ERS12561802”; conditions: 2 µM
[11] = as §1, with “Z-023” for “Z-002”, “to” for “to rabbit gut”, “ERS12561822” for “ERS12561802”; conditions: 2 µM
[12] = as §1, with “Z-012” for “Z-002”, “to” for “to rabbit gut”, “ERS12561812” for “ERS12561802”; conditions: 2 µM
[13] = human gut metagenome, 24 h, 2 µM; remark: listed apart in the source
[14] = human gut metagenome, 24 h, 2 µM; remark: listed apart in the source
[15] = human gut metagenome, 24 h, 2 µM; remark: listed apart in the source
[16] = as §1, with “Z-029” for “Z-002”, “rat” for “rabbit”, “ERS12561828” for “ERS12561802”; conditions: 2 µM
[17] = as §1, with “WLS-090” for “Z-002”, “human” for “rabbit”, “ERS12561753” for “ERS12561802”; conditions: 2 µM
[18] = as §1, with “Z-025” for “Z-002”, “ERS12561824” for “ERS12561802”; conditions: 2 µM
[19] = human gut metagenome, 24 h, 2 µM; remark: listed apart in the source
[20] = as §1, with “Z-027” for “Z-002”, “to” for “to rabbit gut”, “ERS12561826” for “ERS12561802”; conditions: 2 µM
Also: call rule not given here.

| SMILES | Bacterial Biotransformation [1] | Bacterial Biotransformation [2] | Bacterial Biotransformation [3] | Bacterial Biotransformation [4] | Bacterial Biotransformation [5] | Bacterial Biotransformation [6] | Bacterial Biotransformation [7] | Bacterial Biotransformation [8] | Bacterial Biotransformation [9] | Bacterial Biotransformation [10] | Bacterial Biotransformation [11] | Bacterial Biotransformation [12] | Bacterial Biotransformation [13] | Bacterial Biotransformation [14] | Bacterial Biotransformation [15] | Bacterial Biotransformation [16] | Bacterial Biotransformation [17] | Bacterial Biotransformation [18] | Bacterial Biotransformation [19] | Bacterial Biotransformation [20] |
| --- | --- | --- | --- | --- | --- | --- | --- | --- | --- | --- | --- | --- | --- | --- | --- | --- | --- | --- | --- | --- |
| CC(=O)OCC(=O)[C@@]12N=C(C)O[C@@H]1C[C@H]1[C@@H]3CCC4=CC(=O)C=C[C@]4(C)[C@H]3[C@@H](O)C[C@@]12C [DEFLAZACORT] | Compound metabolized | Compound metabolized | Compound metabolized | Compound metabolized | Compound metabolized | Compound metabolized | Compound metabolized | Compound metabolized | Compound metabolized | Compound metabolized | Compound metabolized | Compound metabolized | Compound metabolized | Compound metabolized | Compound metabolized | Compound NOT metabolized | Compound metabolized | Compound metabolized | Compound NOT metabolized | Compound metabolized |
| Cc1ccc(-c2cc(C(F)(F)F)nn2-c2ccc(S(N)(=O)=O)cc2)cc1 [CELECOXIB] | Compound NOT metabolized | Compound NOT metabolized | Compound metabolized | Compound metabolized | Compound metabolized | Compound metabolized | Compound metabolized | Compound NOT metabolized | Compound NOT metabolized | Compound metabolized | Compound NOT metabolized | Compound NOT metabolized | Compound NOT metabolized | Compound metabolized | Compound NOT metabolized | Compound NOT metabolized | Compound NOT metabolized | Compound NOT metabolized | Compound NOT metabolized | Compound NOT metabolized |
| CCCc1nn(C)c2c(=O)[nH]c(-c3cc(S(=O)(=O)N4CCN(C)CC4)ccc3OCC)nc12.O=C(O)CC(O)(CC(=O)O)C(=O)O [SILDENAFIL CITRATE] | Compound NOT metabolized | Compound NOT metabolized | Compound metabolized | Compound metabolized | Compound NOT metabolized | Compound NOT metabolized | Compound NOT metabolized | Compound NOT metabolized | Compound NOT metabolized | Compound NOT metabolized | Compound metabolized | Compound NOT metabolized | Compound NOT metabolized | Compound NOT metabolized | Compound metabolized | Compound NOT metabolized | Compound metabolized | Compound metabolized | Compound NOT metabolized | Compound NOT metabolized |
| CC(C)c1c(C(=O)Nc2ccccc2)c(-c2ccccc2)c(-c2ccc(F)cc2)n1CC[C@@H](O)C[C@@H](O)CC(=O)O [ATORVASTATIN] | Compound metabolized | Compound metabolized | Compound metabolized | Compound metabolized | Compound metabolized | Compound metabolized | Compound NOT metabolized | Compound NOT metabolized | Compound metabolized | Compound metabolized | Compound NOT metabolized | Compound NOT metabolized | Compound metabolized | Compound metabolized | Compound metabolized | Compound NOT metabolized | Compound metabolized | Compound NOT metabolized | Compound NOT metabolized | Compound NOT metabolized |
